Assay results taken from the supplement of paper PMC11061612.

Columns and labels:
Assay in all cases: combination Emax (second highest fraction inhibited in the dose matrix, 72 h); higher = more inhibition; extreme values may be limits of the assay
[1] = test system: BxPC-3 (Pancreatic Carcinoma)
Method in brief: (§1)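 Cell lines grown in DMEM/F12 or RPMI with 10% FBS were plated in 1536-well plates and held 24 hours at 37°C, 5% CO2 before 72 hours of exposure to two-drug dose matrices, with DMSO typically at 0.2%. CellTiter-Glo 2.0 luminescence gave viability, which was converted to inhibition. Vehicle wells were set to 0 and blank wells to 1. Combination Emax is the second-highest inhibition in the matrix, and Bliss excess is the observed combination effect minus the expected EA + EB − EA·EB, where EA and EB are the single-agent effects.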

[2] = test system: MS-1 (Small Cell Lung Carcinoma)
Method in brief: as §1

NB1 (Neuroblastoma) = test system: NB1 (Neuroblastoma)
Method in brief: as §1

WM35 (Melanoma) = test system: WM35 (Melanoma)
Method in brief: as §1

[3] = test system: SK-CO-1 (Colorectal Carcinoma)
Method in brief: as §1

[4] = test system: C-33-A (Cervical Carcinoma)
Method in brief: as §1

NCI-H2373 (Mesothelioma) = test system: NCI-H2373 (Mesothelioma)
Method in brief: as §1

[5] = test system: OVCAR-3 (Ovarian Carcinoma)
Method in brief: as §1

[6] = test system: RCC-JW (Kidney Carcinoma)
Method in brief: as §1

ES6 (Ewing's Sarcoma) = test system: ES6 (Ewing's Sarcoma)
Method in brief: as §1

[7] = test system: SCC-4 (Oral Cavity Carcinoma)
Method in brief: as §1

UACC-257 (Melanoma) = test system: UACC-257 (Melanoma)
Method in brief: as §1

[8] = test system: CPC-N (Small Cell Lung Carcinoma)
Method in brief: as §1

[9] = test system: MDA-MB-415 (Breast Carcinoma)
Method in brief: as §1

[10] = test system: SNU-C2B (Colorectal Carcinoma)
Method in brief: as §1

AM-38 (Glioblastoma) = test system: AM-38 (Glioblastoma)
Method in brief: as §1

[11] = test system: NCI-H1963 (Small Cell Lung Carcinoma)
Method in brief: as §1

[12] = test system: KP-4 (Pancreatic Carcinoma)
Method in brief: as §1

[13] = test system: CL-11 (Colorectal Carcinoma)
Method in brief: as §1

[14] = test system: NMC-G1 (Low Grade Glioma)
Method in brief: as §1

Row | SMILES | combination Emax [1] | combination Emax [2] | combination Emax (NB1 (Neuroblastoma)) | combination Emax (WM35 (Melanoma)) | combination Emax [3] | combination Emax [4] | combination Emax (NCI-H2373 (Mesothelioma)) | combination Emax [5] | combination Emax [6] | combination Emax (ES6 (Ewing's Sarcoma)) | combination Emax [7] | combination Emax (UACC-257 (Melanoma)) | combination Emax [8] | combination Emax [9] | combination Emax [10] | combination Emax (AM-38 (Glioblastoma)) | combination Emax [11] | combination Emax [12] | combination Emax [13] | combination Emax [14]
1 | COc1cc2c(cc1OCCCCCOc1cc3c(cc1OC)C(=O)N1C=C(C)C[C@H]1C=N3)N=C[C@@H]1CC(C)=CN1C2=O [SG3199] + O=C(c1cc(Cc2n[nH]c(=O)c3ccccc23)ccc1F)N1CCN(C(=O)C2CC2)CC1 [Olaparib] (first compound max 0.001 µM, 7x7, partner max 10 µM) | 0.101 | 0.379 | 0.187 | 0.144 | 0.46 | 0.189 | 0.242 | 0.127 | 0.0774 | 0.144 | 0.0768 | 0.0273 | 0.243 | 0.0958 | 0.249 | 0.306 | 0.293 | 0.0915 | 0.111 | 0.183
2 | Cc1c2c(nn1C)CSCc1cc(n(C)n1)CSc1cc(c3ccccc3c1)OCCCc1c(C(=O)O)n(C)c3c-2c(Cl)ccc13 [AZD5991] + C1CN(CCC1(C(=O)N[C@@H](CCO)C2=CC=C(C=C2)Cl)N)C3=NC=NC4=C3C=CN4 [Capivasertib] (first compound max 1 µM, 7x7, partner max 3 µM) | 0.126 | 0.524 | 0.507 | 0.207 | 0.213 | 0.689 | 0.42 | 0.185 | 0.208 | 0.281 | 0.334 | 0.252 | 0.338 | 0.801 | 0.135 | 0.494 | 0.43 | 0.143 | 0.133 | 0.214
3 | COc1cccc(OCCCN)c1-c1cc(Nc2cnc(C#N)cn2)n[nH]1 [Prexasertib] + CCc1c2c(nc3ccc(O)cc13)-c1cc3c(c(=O)n1C2)COC(=O)[C@]3(O)CC [SN-38] (first compound max 1 µM, 7x7, partner max 0.3 µM) | 0.796 | 0.987 | 0.912 | 0.726 | 0.826 | 0.992 | 0.642 | 0.963 | 0.637 | 0.837 | 0.917 | 0.295 | 1 | 0.538 | 0.658 | 0.891 | 1 | 0.9 | 0.849 | 0.315
4 | Cc1c2c(nn1C)CSCc1cc(n(C)n1)CSc1cc(c3ccccc3c1)OCCCc1c(C(=O)O)n(C)c3c-2c(Cl)ccc13 [AZD5991] + C[C@@H]1COCCN1C2=NC(=NC(=C2)C3(CC3)[S@](=N)(=O)C)C4=C5C=CNC5=NC=C4 [AZD6738] (first compound max 1 µM, 7x7, partner max 10 µM) | 0.518 | 0.826 | 0.931 | 0.343 | 0.615 | 0.923 | 0.551 | 0.567 | 0.547 | 0.445 | 0.755 | 0.252 | 0.874 | 0.554 | 0.49 | 0.771 | 0.885 | 0.501 | 0.645 | 0.377
5 | Cc1cc2ncnn2cc1Nc1ncc2c(n1)n(C1CCOCC1)c(=O)n2C [AZD7648] + C=CCn1c(=O)c2cnc(Nc3ccc(N4CCN(C)CC4)cc3)nc2n1-c1cccc(C(C)(C)O)n1 [AZD1775] (first compound max 10 µM, partner max 1 µM) | 0.428 | 0.827 | 0.847 | 0.294 | 0.521 | 0.93 | 0.484 | 0.411 | 0.413 | 0.505 | 0.466 | 0.226 | 0.931 | 0.488 | 0.551 | 0.343 | 0.873 | 0.59 | 0.638 | 0.327
6 | COc1cccc(OCCCN)c1-c1cc(Nc2cnc(C#N)cn2)n[nH]1 [Prexasertib] + O=C(c1cc(Cc2n[nH]c(=O)c3ccccc23)ccc1F)N1CCN(C(=O)C2CC2)CC1 [Olaparib] (first compound max 1 µM, 7x7, partner max 10 µM) | 0.682 | 0.896 | 0.561 | 0.79 | 0.643 | 0.819 | 0.378 | 0.821 | 0.319 | 0.58 | 0.588 | 0.312 | 0.984 | 0.397 | 0.66 | 0.847 | 0.908 | 0.641 | 0.77 | 0.371
7 | CC1(C)CCC(CN2CCN(c3ccc(C(=O)NS(=O)(=O)c4ccc(NCC5CCOCC5)c([N+](=O)[O-])c4)c(Oc4cnc5[nH]ccc5c4)c3)CC2)=C(c2ccc(Cl)cc2)C1 [Venetoclax] + COc1cc(Nc2ncc3c(n2)-c2ccc(Cl)cc2C(c2c(F)cccc2OC)=NC3)ccc1C(=O)O [Alisertib] (first compound max 1 µM, 7x7, partner max 10 µM) | 0.226 | 0.392 | 0.561 | 0.152 | 0.629 | 0.446 | 0.253 | 0.394 | 0.286 | 0.277 | 0.571 | 0.191 | 0.835 | 0.379 | 0.291 | 0.41 | 0.949 | 0.44 | 0.673 | 0.244
8 | Cc1cc2ncnn2cc1Nc1ncc2c(n1)n(C1CCOCC1)c(=O)n2C [AZD7648] + CCN(CCO)CCCOc1ccc2c(Nc3cc(CC(=O)Nc4cccc(F)c4)[nH]n3)ncnc2c1 [AZD2811] (first compound max 10 µM, 7x7, partner max 1 µM) | 0.25 | 0.342 | 0.629 | 0.155 | 0.549 | 0.368 | 0.534 | 0.116 | 0.447 | 0.407 | 0.307 | 0.278 | 0.795 | 0.472 | 0.224 | 0.405 | 0.866 | 0.4 | 0.276 | 0.279
9 | CC1(C)CCC(CN2CCN(c3ccc(C(=O)NS(=O)(=O)c4ccc(NCC5CCOCC5)c([N+](=O)[O-])c4)c(Oc4cnc5[nH]ccc5c4)c3)CC2)=C(c2ccc(Cl)cc2)C1 [Venetoclax] + C=CCn1c(=O)c2cnc(Nc3ccc(N4CCN(C)CC4)cc3)nc2n1-c1cccc(C(C)(C)O)n1 [AZD1775] (first compound max 1 µM, partner max 1 µM) | 0.727 | 0.939 | 0.889 | 0.165 | 0.569 | 0.961 | 0.364 | 0.63 | 0.286 | 0.513 | 0.637 | 0.185 | 0.964 | 0.206 | 0.609 | 0.289 | 0.973 | 0.56 | 0.502 | 0.394
10 | CN(CCO)CC[C@H](CSc1ccccc1)Nc1ccc(S(=O)(=O)NC(=O)c2ccc(N3CCC([C@@H](O)c4ccccc4-c4ccc(Cl)cc4)CC3)cc2)cc1S(=O)(=O)C(F)(F)F [AZD4320] + C[C@@H](Nc1cc(F)cc(F)c1)c1cc(C(=O)N(C)C)cc2c(=O)cc(N3CCOCC3)oc12 [AZD8186] (first compound max 1 µM, 7x7, partner max 3 µM) | 0.252 | 0.613 | 0.651 | 0.561 | 0.917 | 0.515 | 0.48 | 0.512 | 0.817 | 0.463 | 0.765 | 0.269 | 0.95 | 0.909 | 0.374 | 0.905 | 1 | 0.273 | 0.378 | 0.814
11 | CCN(CCO)CCCOc1ccc2c(Nc3cc(CC(=O)Nc4cccc(F)c4)[nH]n3)ncnc2c1 [AZD2811] + O=C(c1cc(Cc2n[nH]c(=O)c3ccccc23)ccc1F)N1CCN(C(=O)C2CC2)CC1 [Olaparib] (first compound max 1 µM, 7x7, partner max 10 µM) | 0.244 | 0.454 | 0.653 | 0.179 | 0.615 | 0.289 | 0.206 | 0.147 | 0.183 | 0.249 | 0.406 | 0.237 | 0.807 | 0.225 | 0.269 | 0.331 | 0.856 | 0.513 | 0.202 | 0.318
12 | CC1(C)CCC(CN2CCN(c3ccc(C(=O)NS(=O)(=O)c4ccc(NCC5CCOCC5)c([N+](=O)[O-])c4)c(Oc4cnc5[nH]ccc5c4)c3)CC2)=C(c2ccc(Cl)cc2)C1 [Venetoclax] + C[C@@H](Nc1cc(F)cc(F)c1)c1cc(C(=O)N(C)C)cc2c(=O)cc(N3CCOCC3)oc12 [AZD8186] (first compound max 1 µM, 7x7, partner max 3 µM) | 0.245 | 0.32 | 0.145 | 0.0866 | 0.187 | 0.154 | 0.216 | 0.241 | 0.293 | 0.198 | 0.614 | 0.121 | 0.835 | 0.663 | 0.125 | 0.157 | 0.758 | 0.421 | 0.083 | 0.171
